Experimental findings from US12084445B2, “Broad-spectrum carbapenems” (VenatoRx Pharmaceuticals, Inc., priority 2018, dated 2024) are described below.

Like-named read-outs stand apart in the source and are kept apart here.

Assay type in all cases: cell-based
The subject of test [1] is S. aureus ATCC 33591 (methicillin-resistant). Description: broth microdilution MIC assay, S. aureus ATCC 33591. To be noted: Staphylococcus aureus. As for the experimental part: (§1) To determine the ability of test compounds to potentiate the inhibition of the growth of bacterial strains, classic cell-based broth microdilution MIC assays were employed. MIC assays are performed according to CLSI methods except where otherwise noted (CLSI, 2011 and CLSI, 2009). The reference strains S. aureus ATCC 29213 (methicillin sensitive), S. aureus ATCC 33591 (methicillin-resistant), E. coli ATCC 25922 (wild-type/QC strain), P. aeruginosa ATCC 27853 (wild-type/QC strain), and the clinical isolate P. aeruginosa PA 8 were used to determine the ability of the exemplary carbapenem compounds to inhibit bacterial growth. An expanded panel of methicillin resistance S. aureus (MRSA) and Pseudomonas was also used to determine the ability of exemplary carbapenem compounds to inhibit bacterial growth across a broader representation of those species. To determine activity in MRSA and in addition to S. aureus ATCC 33591, S. aureus USA 300, USA 400 and USA 600, some of the most common clones found to cause human infection, were also used. To further gauge the impact on the carbapenem compounds due to various resistance mechanisms in Pseudomonas, the following strains were included: P. aeruginosa 35151 (hyper-permeable strain), P. aeruginosa AmexAB-OprM (an efflux pump knockout), and P. aeruginosa PA 3 (a clinical isolate of reduced carbapenem susceptibility). Briefly, cryo-preserved bacterial cultures of clinical strains are streaked for isolation on appropriate agar medium, in this case Mueller Hinton II agar. Following incubation to allow formation of colonies, these plates are sealed with parafilm and stored refrigerated for up to two weeks. For preparation of assay inocula and to ensure low variability, at least 5 colonies are picked from the agar plates with an inoculating loop and aseptically transferred to a culture tube containing 3 mL of Mueller-Hinton Broth (supplemented with divalent cations to required levels based on Manufacturers' specification). The broth culture is grown for 3-5 hours at 37° C. with shaking at 200 rpm. Meanwhile, 2-fold serial dilutions of test compounds are conducted in a 96 well plate with a final volume of 75 μL per well at 2-fold the final desired concentration. After the dilution plates are set up the growing cultures are then diluted in a cuvette containing MH II broth and the optical density is measured at 600 nm. Inocula are diluted such that 75 μL of this culture in Mueller-Hinton Broth results in a starting bacterial concentration of 5×10^5 CFU/mL when added to the dilution plates. The plates are incubated 16-20 hours at 37° C. The MIC is read visually as the lowest concentration well with no bacterial growth.
(§2) Representative results are shown in Tables 3, 4, and 5 where A represents an MIC>32 μg/mL, B represents an MIC between 8 and 32 μg/mL inclusive, C represents an MIC between 1 and 4 μg/mL inclusive, and D represents an MIC of <1 μg/mL. NT=Not Tested.
Background: Dilution methods test growth across graded concentrations, often in twofold steps.

The test system of test [2] is E. coli ATCC 25922 (wild-type/QC strain). Description: broth microdilution MIC assay, E. coli ATCC 25922. To be noted: Escherichia coli. The method, then: as §1, §2
The test system of test [3] is P. aeruginosa ATCC 27853 (wild-type/QC strain). Nature of the test: broth microdilution MIC assay, P. aeruginosa ATCC 27853. To be noted: Pseudomonas aeruginosa. The method, then: as §1, §2
The subject of test [4] is clinical isolate P. aeruginosa PA 8. Description: broth microdilution MIC assay, P. aeruginosa PA 8. The conditions noted are these: Pseudomonas aeruginosa; Table 3; P. aeruginosa PA8. As for the experimental part: as §1, §2
Test [5] concerns S. aureus USA 300. Description: broth microdilution MIC assay, S. aureus USA 300. To be noted: Staphylococcus aureus. The method, then:
as §1, §2

Test [6] deals with S. aureus USA600. Nature of the test: broth microdilution MIC assay, S. aureus USA 600. To be noted: Staphylococcus aureus. The method, then: as §1, §2
Test [7] concerns P. aeruginosa 35151 (hyper-permeable strain). Description: broth microdilution MIC assay, P. aeruginosa 35151. The conditions noted are these: Pseudomonas aeruginosa, read-out: P. aeruginosa 35151 MIC. The method, then:
as §1, §2

Test [8] deals with P. aeruginosa ΔmexAB-OprM (an efflux pump knockout). Nature of the test: broth microdilution MIC assay, P. aeruginosa ΔmexAB-OprM. The conditions noted are these: Pseudomonas aeruginosa, 20 h, read-out: P. aeruginosa ΔmexAB-OprM MIC. As for the experimental part:
as §1, §2

[9] abbreviates: ATCC 33591 / MRSA, Table 3, S. aureus 33591 (MRSA), read-out: S. aureus 33591 (MRSA) MIC.
Where [10] appears, read: ATCC25922, Table 3, E. coli 25922, read-out: E. coli 25922 MIC.
Setting [11] is: ATCC27853, Table 3, P. aeruginosa 27853, read-out: P. aeruginosa 27853 MIC.
Where [12] appears, read: ATCC33591, Table 4, S. aureus 33591, read-out: S. aureus 33591 MIC.
Where [13] appears, read: ATCC25922, Table 4, E. coli 25922, read-out: E. coli 25922 MIC.
Setting [14] is: ATCC27853, Table 5, P. aeruginosa 27853, read-out: P. aeruginosa 27853 MIC.
[15] abbreviates: Table 4, S. aureus USA300, read-out: S. aureus USA300 MIC.
[16] abbreviates: Table 4, S. aureus USA600, read-out: S. aureus USA600 MIC.

Take `C[C@@H](O)[C@H]1C(=O)N2C(C(=O)O)=C(S[C@@H]3CCN(CC4CNCCN4S(C)(=O)=O)C3)[C@H](C)[C@H]12` (stereo partly drawn) [Example 32, (4R,5S,6S)-6-((R)-1-hydroxyethyl)-4-methyl-3-(((3R)-1-((1-(methylsulfonyl)piperazin-2-yl)methyl)pyrrolidin-3-yl)thio)-7-oxo-1-azabicyclo[3.2.0]hept-2-ene-2-carboxylic acid]: the MIC in test [1] (setting [9]), in test [2] (setting [10]), in test [3] (setting [11]) and in test [4] was 8 to 32 µg/mL throughout.

Regarding `C[C@@H](O)[C@H]1C(=O)N2C(C(=O)[O-])=C(S[C@@H]3CC[N+](C)(CC4CCNCC4)C3)[C@H](C)[C@H]12` (stereo partly drawn) [Example 33, (4R,5S,6S)-6-((R)-1-hydroxyethyl)-4-methyl-3-(((3R)-1-methyl-1-(piperidin-4-ylmethyl)pyrrolidin-1-ium-3-yl)thio)-7-oxo-1-azabicyclo[3.2.0]hept-2-ene-2-carboxylate], the MIC (usually the lowest concentration found to suppress growth) in test [1] (setting [9]) is 8 to 32 µg/mL; in test [2] (setting [10]), less than 1 µg/mL; in test [3] (setting [11]), 1 to 4 µg/mL; in test [4] it was 1 to 4 µg/mL.

For the molecule `C[C@@H](O)[C@H]1C(=O)N2C(C(=O)O)=C(S[C@@H]3CCN(Cc4ccc(C(N)CN)cc4)C3)[C@H](C)[C@H]12` (stereo partly drawn) [Example 34, (4R,5S,6S)-3-(((3R)-1-(4-(1,2-diaminoethyl)benzyl)pyrrolidin-3-yl)thio)-6-((R)-1-hydroxyethyl)-4-methyl-7-oxo-1-azabicyclo[3.2.0]hept-2-ene-2-carboxylic acid], the minimum inhibitory concentration (MIC) is 1 to 4 µg/mL in test [1] (setting [9]), less than 1 µg/mL in test [2] (setting [10]), 8 to 32 µg/mL in test [3] (setting [11]) and 8 to 32 µg/mL in test [4].

`C[C@@H](O)[C@H]1C(=O)N2C(C(=O)O)=C(S[C@@H]3CCN(CC4CCN(C)CC4)C3)[C@H](C)[C@H]12` [Example 39, (4R,5S,6S)-6-((R)-1-hydroxyethyl)-4-methyl-3-(((R)-1-((1-methylpiperidin-4-yl)methyl)pyrrolidin-3-yl)thio)-7-oxo-1-azabicyclo[3.2.0]hept-2-ene-2-carboxylic acid]: the minimum inhibitory concentration (MIC) in test [1] (setting [12]) was 1 to 4 µg/mL; in test [2] (setting [13]), less than 1 µg/mL; in test [3] (setting [14]) it was 1 to 4 µg/mL; in test [5] (setting [15]) it was 1 to 4 µg/mL; in test [6] (setting [16]), 1 to 4 µg/mL; in test [7], less than 1 µg/mL. In addition, the MIC in test [8] is 1 to 4 µg/mL.

As for `C[C@@H](O)[C@H]1C(=O)N2C(C(=O)O)=C(S[C@@H]3CCN(CC4CCN(CCO)CC4)C3)[C@H](C)[C@H]12` [Example 40, (4R,5S,6S)-6-((R)-1-hydroxyethyl)-3-(((R)-1-((1-(2-hydroxyethyl)piperidin-4-yl)methyl)pyrrolidin-3-yl)thio)-4-methyl-7-oxo-1-azabicyclo[3.2.0]hept-2-ene-2-carboxylic acid], the minimal inhibitory concentration (MIC) was 8 to 32 µg/mL in test [1] (setting [12]); less than 1 µg/mL in test [2] (setting [13]); 1 to 4 µg/mL in test [3] (setting [14]); 1 to 4 µg/mL in test [5] (setting [15]); 1 to 4 µg/mL in test [6] (setting [16]); less than 1 µg/mL in test [7]. Also, the minimal inhibitory concentration (MIC) in test [8] lay in the range of 1 to 4 µg/mL.

With `C[C@@H](O)[C@H]1C(=O)N2C(C(=O)O)=C(S[C@@H]3CCN(CC4CCN(CC(N)=O)CC4)C3)[C@H](C)[C@H]12` [Example 41, (4R,5S,6S)-3-(((R)-1-((1-(2-amino-2-oxoethyl)piperidin-4-yl)methyl)pyrrolidin-3-yl)thio)-6-((R)-1-hydroxyethyl)-4-methyl-7-oxo-1-azabicyclo[3.2.0]hept-2-ene-2-carboxylic acid], the MIC in test [1] (setting [12]) was 8 to 32 µg/mL; in test [2] (setting [13]), less than 1 µg/mL; in test [3] (setting [14]), 8 to 32 µg/mL; in test [5] (setting [15]), 1 to 4 µg/mL; in test [6] (setting [16]), 1 to 4 µg/mL; in test [7], less than 1 µg/mL. Also, the MIC in test [8] was in the range of 1 to 4 µg/mL.

For `C[C@@H](O)[C@H]1C(=O)N2C(C(=O)O)=C(S[C@@H]3CCN(CC4CCNCC4F)C3)[C@H](C)[C@H]12` (stereo partly drawn) [Example 45, (4R,5S,6S)-3-(((3R)-1-((3-fluoropiperidin-4-yl)methyl)pyrrolidin-3-yl)thio)-6-((R)-1-hydroxyethyl)-4-methyl-7-oxo-1-azabicyclo[3.2.0]hept-2-ene-2-carboxylic acid], the minimum inhibitory concentration (MIC) in test [1] (ATCC33591, read-out: S. aureus 33591 MIC) is 1 to 4 µg/mL; in test [2] (ATCC25922, read-out: E. coli 25922 MIC) it was less than 1 µg/mL; in test [3] (ATCC27853, read-out: P. aeruginosa 27853 MIC), 1 to 4 µg/mL; in test [5] (USA300, read-out: S. aureus USA300 MIC), 1 to 4 µg/mL; in test [6] (USA600, read-out: S. aureus USA600 MIC), 1 to 4 µg/mL; in test [7] it was less than 1 µg/mL. Besides, the MIC in test [8] lay within 1 to 4 µg/mL.

Turning to `C[C@@H](O)[C@H]1C(=O)N2C(C(=O)O)=C(S[C@@H]3CCN(CC4CCNCC4(F)F)C3)[C@H](C)[C@H]12` (stereo partly drawn) [Example 46, (4R,5S,6S)-3-(((3R)-1-((3,3-difluoropiperidin-4-yl)methyl)pyrrolidin-3-yl)thio)-6-((R)-1-hydroxyethyl)-4-methyl-7-oxo-1-azabicyclo[3.2.0]hept-2-ene-2-carboxylic acid], the minimal inhibitory concentration (MIC) in test [1] (setting [12]) is 8 to 32 µg/mL; in test [2] (setting [13]), less than 1 µg/mL; in test [3] (setting [14]) it was 8 to 32 µg/mL; in test [5] (setting [15]) it was 1 to 4 µg/mL; in test [6] (setting [16]) it was 1 to 4 µg/mL; in test [7] it was less than 1 µg/mL. Besides, the minimal inhibitory concentration (MIC) in test [8] fell in the range of 1 to 4 µg/mL.

`C[C@@H](O)[C@H]1C(=O)N2C(C(=O)O)=C(S[C@@H]3CCN(CC4CCN(C(=O)CN)CC4)C3)[C@H](C)[C@H]12` [Example 47, (4R,5S,6S)-3-(((R)-1-((1-glycylpiperidin-4-yl)methyl)pyrrolidin-3-yl)thio)-6-((R)-1-hydroxyethyl)-4-methyl-7-oxo-1-azabicyclo[3.2.0]hept-2-ene-2-carboxylic acid]: the minimum inhibitory concentration (MIC) was 8 to 32 µg/mL in test [1] (setting [12]); less than 1 µg/mL in test [2] (setting [13]); 1 to 4 µg/mL in test [3] (setting [14]); 1 to 4 µg/mL in test [5] (setting [15]); 1 to 4 µg/mL in test [6] (setting [16]); less than 1 µg/mL in test [7]. Moreover, the MIC in test [8] was in the range of 1 to 4 µg/mL.

With `CNCC(=O)N1CCC(CN2CC[C@@H](SC3=C(C(=O)O)N4C(=O)[C@H]([C@@H](C)O)[C@H]4[C@H]3C)C2)CC1` [Example 48, (4R,5S,6S)-6-((R)-1-hydroxyethyl)-4-methyl-3-(((R)-1-((1-(methylglycyl)piperidin-4-yl)methyl)pyrrolidin-3-yl)thio)-7-oxo-1-azabicyclo[3.2.0]hept-2-ene-2-carboxylic acid], the MIC is 8 to 32 µg/mL in test [1] (setting [12]); less than 1 µg/mL in test [2] (setting [13]); 1 to 4 µg/mL in test [3] (setting [14]); 1 to 4 µg/mL in test [5] (setting [15]); 1 to 4 µg/mL in test [6] (setting [16]); less than 1 µg/mL in test [7]. The minimum inhibitory concentration (MIC) in test [8] lay within 1 to 4 µg/mL.
